According to publication PMC4891657, “Orexin 2 Receptor Antagonism is Sufficient to Promote NREM and REM Sleep from Mouse to Man” (Scientific Reports, 2016):

How the values were obtained:
OX1R [1] = biological target: T1, OX1R (Canis lupus familiaris, UniProt A0A8I3RSX8); assay: Radio-ligand displacement binding, CHO-K1 membranes, dog OX1R; settings: read-out: OX1R affinity (Ki)
T1 sequence (A0A8I3RSX8 1-427): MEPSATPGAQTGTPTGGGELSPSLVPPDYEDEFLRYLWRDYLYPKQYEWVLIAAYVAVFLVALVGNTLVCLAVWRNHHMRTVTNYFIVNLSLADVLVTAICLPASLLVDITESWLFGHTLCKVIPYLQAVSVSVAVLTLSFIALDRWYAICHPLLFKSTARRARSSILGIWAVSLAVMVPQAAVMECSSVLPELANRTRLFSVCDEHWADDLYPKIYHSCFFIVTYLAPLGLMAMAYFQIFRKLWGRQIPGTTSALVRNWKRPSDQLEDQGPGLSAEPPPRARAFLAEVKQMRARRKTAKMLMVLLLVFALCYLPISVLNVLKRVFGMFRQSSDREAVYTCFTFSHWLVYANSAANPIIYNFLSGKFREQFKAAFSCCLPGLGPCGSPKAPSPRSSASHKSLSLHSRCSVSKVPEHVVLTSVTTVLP
Protocol: (§1) MK-1064 was evaluated for its ability to inhibit orexin-peptide-A-induced calcium mobilization in CHO cell lines separately expressing OX1R and OX2R from mice, rats, rabbits, dogs, rhesus monkeys and humans.
(§2) Binding and functional blockade of OX1R and OX2R with MK-1064 relative to other 2-SORAs and the DORA, MK-6096, were assessed using membranes from Chinese hamster ovary (CHO)-K1 cells (American Type Tissue Collection, Manassas, VA) transfected to express human, mouse, rat, rabbit, dog, or rhesus monkey OX1R or OX2R receptors, as described previously. The kinetics of binding to human OX2R was assessed by radioligand displacement on CHO-K1 cells expressing the receptor. […] The ON rate analysis was performed by presoaking GF/B filters in 0.3% polyethyleneimine (Sigma) using a Skatron 12-well cell harvester and cold buffer at the indicated time points after addition. For OFF rate determination, binding reactions were allowed to proceed to equilibrium and terminated with 1000x [Kd] of unlabeled antagonist and filtered as above at pre-determined time points. Ultima Gold^TM (PerkinElmer 6013327) scintillation cocktail was added to each filter disc and counted on a PerkinElmer TriCarb 2910 scintillation counter. Data were analyzed using GraphPad® Prism v 6.04 (San Diego, CA, USA). The KON rate was determined according to the equation, KON = (KOBS − KOFF)/[ligand].

hOX1R [2] = biological target: T2, hOX1R (Homo sapiens, UniProt O43613); assay: Radio-ligand displacement binding, CHO-K1 membranes, human OX1R; settings: read-out: OX1R affinity (Ki)
T2 construct: expressed in transfected cells; host or cells: CHO-K1
T2 sequence (O43613 1-425): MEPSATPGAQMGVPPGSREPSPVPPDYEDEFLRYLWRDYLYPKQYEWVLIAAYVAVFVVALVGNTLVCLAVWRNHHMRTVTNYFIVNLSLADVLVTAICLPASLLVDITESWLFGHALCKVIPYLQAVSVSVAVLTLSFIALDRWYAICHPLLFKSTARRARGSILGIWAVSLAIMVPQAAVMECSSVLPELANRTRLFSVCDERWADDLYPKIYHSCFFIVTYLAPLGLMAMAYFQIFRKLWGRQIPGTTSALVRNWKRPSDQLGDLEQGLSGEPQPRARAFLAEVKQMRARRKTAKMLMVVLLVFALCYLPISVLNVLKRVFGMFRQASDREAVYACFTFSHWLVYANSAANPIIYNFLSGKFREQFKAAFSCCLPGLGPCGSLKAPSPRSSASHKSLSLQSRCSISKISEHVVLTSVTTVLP
Protocol: as §1, §2

OX2R [3] = biological target: T3, OX2R (Rattus norvegicus, UniProt P56719); assay: Inhibition of orexin-peptide-A-induced calcium mobilization in CHO cells, rat OX2R; format: cell-based; settings: for fold OX2R selectivity (Kb): OX1R Kb / OX2R Kb
T3 construct: expressed in transfected cells; host or cells: CHO-K1
T3 sequence (P56719 1-460): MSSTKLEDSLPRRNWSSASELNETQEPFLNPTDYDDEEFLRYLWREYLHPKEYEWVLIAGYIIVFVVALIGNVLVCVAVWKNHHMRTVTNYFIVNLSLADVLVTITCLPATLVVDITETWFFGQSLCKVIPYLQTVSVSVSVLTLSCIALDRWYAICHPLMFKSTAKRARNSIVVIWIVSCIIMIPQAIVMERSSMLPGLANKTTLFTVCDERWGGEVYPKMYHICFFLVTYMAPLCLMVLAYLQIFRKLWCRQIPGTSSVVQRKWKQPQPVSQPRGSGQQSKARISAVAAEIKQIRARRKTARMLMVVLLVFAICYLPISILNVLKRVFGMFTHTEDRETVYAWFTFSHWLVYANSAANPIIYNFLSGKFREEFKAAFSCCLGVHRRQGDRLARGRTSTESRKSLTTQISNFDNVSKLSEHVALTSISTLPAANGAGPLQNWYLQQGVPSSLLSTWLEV
Protocol: as §1, §2

hOX1R [4] = biological target: T2, hOX1R; assay: Inhibition of orexin-peptide-A-induced calcium mobilization in CHO cells, human OX1R; format: cell-based
Protocol: as §1, §2

OX2R [5] = biological target: T4, OX2R (Macaca mulatta, UniProt F7CZM2); assay: Inhibition of orexin-peptide-A-induced calcium mobilization in CHO cells, rhesus OX2R; format: cell-based, rhesus monkey; settings: for fold OX2R selectivity (Kb): OX1R Kb / OX2R Kb
T4 sequence (F7CZM2 1-444): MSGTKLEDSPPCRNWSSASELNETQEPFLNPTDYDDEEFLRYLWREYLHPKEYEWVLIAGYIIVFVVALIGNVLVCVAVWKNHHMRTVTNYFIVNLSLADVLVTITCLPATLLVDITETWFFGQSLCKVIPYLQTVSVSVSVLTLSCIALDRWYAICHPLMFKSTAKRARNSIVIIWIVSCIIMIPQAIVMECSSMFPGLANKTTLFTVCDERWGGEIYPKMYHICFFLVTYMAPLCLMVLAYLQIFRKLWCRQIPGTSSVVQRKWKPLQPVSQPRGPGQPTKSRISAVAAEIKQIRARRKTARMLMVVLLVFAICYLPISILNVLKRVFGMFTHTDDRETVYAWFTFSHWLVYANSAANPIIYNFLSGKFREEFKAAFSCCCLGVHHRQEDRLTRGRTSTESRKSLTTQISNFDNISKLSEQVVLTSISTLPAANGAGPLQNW
Protocol: as §1, §2

OX1R [6] = biological target: T1, OX1R; assay: Inhibition of orexin-peptide-A-induced calcium mobilization in CHO cells, dog OX1R; format: cell-based
Protocol: as §1, §2

OX1R [7] = biological target: T5, OX1R (Mus musculus, UniProt P58307); assay: Inhibition of orexin-peptide-A-induced calcium mobilization in CHO cells, mouse OX1R; format: cell-based
T5 construct: expressed in transfected cells; host or cells: CHO-K1
T5 sequence (P58307 1-416): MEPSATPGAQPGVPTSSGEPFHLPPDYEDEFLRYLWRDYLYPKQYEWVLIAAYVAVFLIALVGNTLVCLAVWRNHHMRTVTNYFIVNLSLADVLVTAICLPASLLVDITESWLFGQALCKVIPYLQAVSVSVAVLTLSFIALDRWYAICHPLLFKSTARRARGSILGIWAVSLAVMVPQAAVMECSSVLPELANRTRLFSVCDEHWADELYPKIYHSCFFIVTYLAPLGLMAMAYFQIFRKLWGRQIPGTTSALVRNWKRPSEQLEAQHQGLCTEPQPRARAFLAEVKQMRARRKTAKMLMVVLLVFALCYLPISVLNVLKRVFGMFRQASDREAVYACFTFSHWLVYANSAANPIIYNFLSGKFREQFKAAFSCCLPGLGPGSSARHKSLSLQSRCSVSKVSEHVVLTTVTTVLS
Protocol: as §1, §2

Compound | Ki (OX1R [1]) | Ki (hOX1R [2]) | Kb (OX2R [3]) | fold OX2R selectivity (Kb) (OX2R [3]) | Kb (hOX1R [4]) | Kb (OX2R [5]) | fold OX2R selectivity (Kb) (OX2R [5]) | Kb (OX1R [6]) | Kb (OX1R [7])
COc1ccc(CNC(=O)c2cc(-c3cncc(C)c3)ncc2-c2ccccc2)nc1OC [2-SORA-7] | 1800 nM | 2800 nM | 18 nM | [3238] fold | 4360 nM | 18 nM | [203] fold | > 10000 nM | 7950 nM
COc1ccc(CNC(=O)c2cc(-c3cc(Cl)cc(Cl)c3)cnc2-c2cccnc2)cc1OC [2-SORA-18] | 86 nM | 100 nM | 21 nM | [50] fold | 161 nM | 23 nM | [6] fold | 87 nM | 208 nM
COc1ccc(CNC(=O)c2cc(-c3cncc(Cl)c3)cnc2-c2ccccn2)nc1OC [MK-1064, 5″-chloro-N-[(5,6-dimethoxypyridin-2-yl)methyl]-2,2′:5′, 3″-terpyridine-3′-carbo xamide] | 1300 nM | 1500 nM | 13 nM | [613] fold | 1870 nM | 9 nM | [375] fold | 3700 nM | 10300 nM
COc1ccc(CNC(=O)c2cc(-c3cncc(C)c3)ncc2-c2nccs2)nc1OC [MK-3697] | 3100 nM | – | 31 nM | – | – | 20 nM | – | > 10000 nM | 27200 nM
Cc1ccc(-c2ncccn2)c(C(=O)N2C[C@H](COc3ccc(F)cn3)CC[C@H]2C)c1 [MK-6096] | 2.7 nM | 2.5 nM | 22 nM | [0.5] fold | 11 nM | 14 nM | [1.5] fold | 10 nM | 9 nM
